The nature of one data set: in vitro. The conditions noted are these: dog.
The next data set concerns the target H1N1 PB2 CBD (Influenza A virus, UniProt P03427). The data set can be described thus: SPR binding assay on immobilized H1N1 PB2 CBD. Also noted: species or system influenza A/WSN/1933 (H1N1). The settings on record: Biacore T200, CM5 chip, affinity binding model.
The test system of data set [1] is A/Hong Kong/8/68 (HK/68, H3N2). Format: cell-based. The conditions noted are these: MDCK cells, CPE inhibition.

By Kd is commonly meant the constant that tells how readily two partners part at equilibrium. The low end stands for tighter binding, the high end for weaker binding.

Sequence of H1N1 PB2 CBD (P03427 318-486 limits assumed): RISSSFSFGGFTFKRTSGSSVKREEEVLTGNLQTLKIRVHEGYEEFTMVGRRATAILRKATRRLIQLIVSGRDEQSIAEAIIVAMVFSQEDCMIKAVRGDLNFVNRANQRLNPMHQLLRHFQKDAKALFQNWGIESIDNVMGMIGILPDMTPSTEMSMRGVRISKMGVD

In the data set “in vitro”, `Cc1c(-c2ccccc2F)[nH]c2ccc(CNC(=O)CCc3cc(O)no3)cc12` [11C5] returned a CC50 at 72 h of over 100 µM. Moreover, the Kd on H1N1 PB2 CBD was 2260 nM.
Consider `Cc1cc(CN2CCOc3c(O)cc(-c4ccccc4Cl)cc3C2)on1` [11C6], for which, in “in vitro”, the CC50 at 72 h is over 100 µM. Besides, the affinity on H1N1 PB2 CBD, expressed as Kd, was 1700 nM.
For the compound `O=C(NCc1nc(C2CCCCC2)no1)c1cc(-c2ccccc2F)n[nH]1` [11C8], the CC50 at 72 h in “in vitro” was over 100 µM. This compound also gave a Kd at H1N1 PB2 CBD of 6160 nM.
In the same order, the values of `c1csc(CNc2nc3nonc3nc2NCCCN2CCOCC2)c1` [11D2] are over 100 µM and 210 nM.
As to `C=CCn1cc(CNCc2noc(-c3ccc4c(c3)OCO4)n2)c(C)n1` [11D4], the CC50 at 72 h in the data set “in vitro” is over 100 µM. Further, the Kd at H1N1 PB2 CBD was 1870 nM.
Consider `c1cc(Cn2ccnc2-c2nc3c(s2)CCCC3)cc(-c2nnn[nH]2)c1` [12B1], for which the CC50 at 72 h in the data set “in vitro” was over 100 µM. Besides, on H1N1 PB2 CBD, the Kd was 6770 nM.
In the case of `C=CCn1cc(-c2cc(-c3ccc(C(=O)O)cc3)[nH]c(=N)c2C#N)cn1` [12C5], the CC50 at 72 h in “in vitro” is over 100 µM. For the same compound, binding at H1N1 PB2 CBD was put at a Kd of 2440 nM.
Take `NS(=O)(=O)CCCC(=O)NCc1ccc2[nH]c3c(c2c1)CCCCCC3` [13D7]: the CC50 at 72 h in “in vitro” was over 100 µM. This compound also registered a Kd on H1N1 PB2 CBD of 1130 nM.
Compound `CCSc1ncc(-c2cc(-c3c(C)nn(C)c3C)nc(N)c2C#N)cn1` [21A5] came in with a CC50 at 72 h in “in vitro” of over 100 µM. On H1N1 PB2 CBD, this compound had a Kd of 540 nM.
Regarding `Cc1cccnc1CCNc1nc2nonc2nc1NCc1cccs1` [21B1], the CC50 at 72 h in “in vitro” is over 100 µM. Also, on H1N1 PB2 CBD, binding was characterised by a dissociation constant (Kd) of 1950 nM. Also, the “activity against the A/Hong Kong/8/68 (HK/68, H3N2) strain, in words” value in data set [1] is listed as “no activity”.
In turn, `CCC(CC)O[C@@H]1C=C(C(=O)O)C[C@H](N)[C@H]1NC(C)=O` [OC, Oseltamivir carboxylate, reference compound] registered a CC50 at 72 h in the data set “in vitro” of over 100 µM.
As for `O=C(O)[C@H]1C2CCC(CC2)[C@@H]1Nc1nc(-c2c[nH]c3ncc(F)cc23)ncc1F` [VX-787, reference compound], in “in vitro”, the CC50 at 72 h was over 100 µM. The compound further showed a Kd at H1N1 PB2 CBD of 54 nM.

The values are drawn from PMC7697191, “Identification of Novel Influenza Polymerase PB2 Inhibitors Using a Cascade Docking Virtual Screening Approach” (Molecules, 2020).
